Measurements taken from ChEMBL document CHEMBL5113491, “Discovery of N-benzylarylamide derivatives as novel tubulin polymerization inhibitors capable of activating the Hippo pathway” (Eur J Med Chem, 2022).
Active and inactive are the calls of the source. No cut-off for these calls is given here.

What was measured:
HGC-27 = assay: Antiproliferative activity against human HGC-27 cells assessed as inhibition of cell growth measured after 48 hrs by MTT assay; assay type: functional, cell-based; details: HGC-27, 48 h
SGC-7901 [1] = assay: Antiproliferative activity against human SGC-7901 cells assessed as inhibition of cell growth measured after 48 hrs by MTT assay; assay type: functional, cell-based; details: SGC-7901, 48 h
DU-145 = assay: Antiproliferative activity against human DU-145 cells assessed as inhibition of cell growth measured after 48 hrs by MTT assay; assay type: functional, cell-based; details: DU-145, 48 h
A549 = assay: Antiproliferative activity against human A549 cells assessed as inhibition of cell growth measured after 48 hrs by MTT assay; assay type: functional, cell-based; details: A549, 48 h
NCI-H520 = assay: Antiproliferative activity against human NCI-H520 cells assessed as inhibition of cell growth measured after 48 hrs by MTT assay; assay type: functional, cell-based; details: NCI-H520, 48 h
Huh-7 = assay: Antiproliferative activity against human Huh-7 cells assessed as inhibition of cell growth measured after 48 hrs by MTT assay; assay type: functional, cell-based; details: Huh-7, 48 h
MGC-803 [2] = assay: Antiproliferative activity against human MGC-803 cells assessed as inhibition of cell growth measured upto 72 hrs by MTT assay; assay type: functional, cell-based; details: dose 15-45 µmol/L, DDE = dose-dependent effect
SGC-7901 [3] = assay: Antiproliferative activity against human SGC-7901 cells assessed as inhibition of cell growth measured upto 72 hrs by MTT assay; assay type: functional, cell-based; details: dose 15-45 µmol/L, DDE = dose-dependent effect
GES1 = assay: Cytotoxicity against human GES1 cells assessed as reduction in cell viability at 5 to 40 nM measured after 48 hrs by MTT assay; assay type: toxicity, cell-based; details: ges1, 48 h, 0.04 µM, dose 5-40 nM
HUVEC = assay: Cytotoxicity against human HUVEC cells assessed as reduction in cell viability at 5 to 40 nM measured after 48 hrs by MTT assay; assay type: toxicity, cell-based; details: 0.04 µM, dose 5-40 nM
[4] = (§1) Inhibition of porcine brain microtubule polymerization measured after 1 hrs by fluorescence based assay; parameters: species or system Sus scrofa
Sus scrofa = species: Sus scrofa; assay: as §1; details: DDE = dose-dependent effect
[5] = biological target: Tubulin beta (Homo sapiens) (UniProt P68371+Q9H4B7+Q13509+P04350+Q3ZCM7+P07437+Q13885+Q9BVA1+Q9BUF5+A6NNZ2); assay: Binding affinity to beta-tubulin colchicine binding site in human MGC-803 cells assessed as inhibition of EBI-beta-tubulin adduct band formation preincubated for 2 hrs followed by EBI addition and measured after 2 hrs by EBI competition based Western blotting analysis; assay type: cell-based; details: dose 1-10 µM, time 4.0 hrs, DDE = dose-dependent effect
Tubulin (Homo sapiens) = Tubulin (Homo sapiens) (UniProt P68371+Q9H4B7+P0DPH7+P68366+Q13509+Q71U36+P04350+Q3ZCM7+P07437+P68363+Q9BQE3+Q6PEY2+Q13885+Q9BVA1+Q9BUF5); assay: Induction of microtubule disruption in human MGC-803 cells at 25 nmol/L measured after 48 hrs by DAPI staining based immunofluorescence assay; assay type: cell-based
MGC-803 [6] = assay: Activation of LATS in human MGC-803 cells assessed as increase in LATS phosphorylation measured after 48 hrs by Western blot analysis; assay type: cell-based; details: filed as activator, dose 15-45 nmol/L, DDE = dose-dependent effect
MGC-803 [7] = assay: Downregulation of YAP protein expression in human MGC-803 cells measured after 48 hrs by Western blot analysis; assay type: functional, cell-based; details: dose 15-45 nmol/L, DDE = dose-dependent effect
SGC-7901 [8] = assay: Downregulation of YAP protein expression in human SGC-7901 cells measured after 48 hrs by Western blot analysis; assay type: functional, cell-based; details: dose 15-45 nmol/L, DDE = dose-dependent effect
MGC-803 [9] = assay: Downregulation of TAZ protein expression in human MGC-803 cells measured after 48 hrs by Western blot analysis; assay type: functional, cell-based; details: dose 15-45 nmol/L, DDE = dose-dependent effect
SGC-7901 [10] = assay: Downregulation of TAZ protein expression in human SGC-7901 cells measured after 48 hrs by Western blot analysis; assay type: functional, cell-based; details: dose 15-45 nmol/L, DDE = dose-dependent effect
MGC-803 [11] = assay: Inhibition of colony formation in human MGC-803 cells measured after 7 days; assay type: functional, cell-based; details: dose 6-30 nmol/L, time 7.0 day, DDE = dose-dependent effect
MGC-803 [12] = assay: Induction of cell cycle arrest in human MGC-803 cells assessed as increase in G2/M phase cells measured after 24 hrs by flow cytometry; assay type: functional, cell-based; details: dose 15-45 nmol/L, DDE = dose-dependent effect
MGC-803 [13] = assay: Induction of cell cycle arrest in human MGC-803 cells assessed as increase in G2/M phase cells at 45 nmol/L measured after 24 hrs by flow cytometry (reference value: 19.38%); assay type: functional
MGC-803 [14] = assay: Induction of G2/M phase cell cycle arrest in human MGC-803 cells assessed as decrease in cyclin A1 expression at 15 to 45 nmol/L measured after 48 hrs by Western blot analysis; assay type: functional, cell-based; details: dose 15-45 nmol/L
MGC-803 [15] = assay: Induction of G2/M phase cell cycle arrest in human MGC-803 cells assessed as decrease in cyclin B1 expression at 15 to 45 nmol/L measured after 48 hrs by Western blot analysis; assay type: functional, cell-based; details: dose 15-45 nmol/L
SGC-7901 [16] = assay: Induction of G2/M phase cell cycle arrest in human SGC-7901 cells assessed as decrease in cyclin B1 expression at 15 to 45 nmol/L measured after 48 hrs by Western blot analysis; assay type: functional, cell-based; details: dose 15-45 nmol/L
SGC-7901 [17] = assay: Induction of G2/M phase cell cycle arrest in human SGC-7901 cells assessed as decrease in p-cdc2 (T161) expression at 15 to 45 nmol/L measured after 48 hrs by Western blot analysis; assay type: functional, cell-based; details: dose 15-45 nmol/L
MGC-803 [18] = assay: Induction of G2/M phase cell cycle arrest in human MGC-803 cells assessed as increase in p-Histone H3 expression at 15 to 45 nmol/L measured after 48 hrs by Western blot analysis; assay type: functional, cell-based; details: dose 15-45 nmol/L
SGC-7901 [19] = assay: Induction of G2/M phase cell cycle arrest in human SGC-7901 cells assessed as increase in p-Histone H3 expression at 15 to 45 nmol/L measured after 48 hrs by Western blot analysis; assay type: functional, cell-based; details: dose 15-45 nmol/L
MGC-803 [20] = assay: Induction of cell apoptosis in human MGC-803 cells assessed as increase in apoptotic cells measured after 48 hrs by Annexin V/PI staining based flow cytometric analysis; assay type: functional; details: dose 15-45 nmol/L, DDE = dose-dependent effect
MGC-803 [21] = assay: Induction of apoptosis in human MGC-803 cells assessed as decrease in Bcl-xl protein expression measured after 48 hrs by Western blot analysis; assay type: functional, cell-based; details: dose 15-45 nmol/L, DDE = dose-dependent effect
SGC-7901 [22] = assay: Induction of apoptosis in human SGC-7901 cells assessed as increase in cleaved caspase 7 expression at 15 to 45 nmol/L measured after 48 hrs by Western blot analysis; assay type: functional, cell-based; details: dose 15-45 nmol/L
MGC-803 [23] = assay: Induction of apoptosis in human MGC-803 cells assessed as increase in cleaved caspase 9 expression at 15 to 45 nmol/L measured after 48 hrs by Western blot analysis; assay type: functional, cell-based; details: dose 15-45 nmol/L
SGC-7901 [24] = assay: Induction of apoptosis in human SGC-7901 cells assessed as increase in cleaved caspase 9 expression at 15 to 45 nmol/L measured after 48 hrs by Western blot analysis; assay type: functional, cell-based; details: dose 15-45 nmol/L
SGC-7901 [25] = assay: Induction of morphological changes in human SGC-7901 cells assessed as change in concentration of nuclei at 15 to 45 nmol/L measured after 48 hrs by DAPI staining based microscopic analysis; assay type: functional, cell-based; details: dose 15-45 nmol/L
MGC-803 [26] = assay: Induction of morphological changes in human MGC-803 cells assessed as cell fragmentation at 15 to 45 nmol/L measured after 48 hrs by bright field microscopic analysis; assay type: functional, cell-based; details: dose 15-45 nmol/L
SGC-7901 [27] = assay: Induction of morphological changes in human SGC-7901 cells assessed as decrease in density at 15 to 45 nmol/L measured after 48 hrs by bright field microscopic analysis; assay type: functional, cell-based; details: dose 15-45 nmol/L

- IC50 (SGC-7901 [1]): 25 nM
- IC50 (DU-145): 81 nM
- IC50 (A549): 59 nM
- IC50 (NCI-H520): 52 nM
- IC50 (Huh-7): 60 nM
- IC50 [4]: 920 nM
- inhibition (Sus scrofa): Dde
- Activity [5]: Dde
- Activity (Tubulin (Homo sapiens)): Active
Compound: C/C=C/C(=O)N(Cc1ccc(OC)c(O)c1)c1cc(OC)c(OC)c(OC)c1
- IC50 (HGC-27): 33 nM
- Activity (MGC-803 [2]): Dde
- Activity (SGC-7901 [3]): Dde
- Activity (GES1): Non-Toxic
- Activity (HUVEC): Non-Toxic
- Activity (MGC-803 [6]): Dde
- Activity (MGC-803 [7]): Dde
- Activity (SGC-7901 [8]): Dde
- Activity (MGC-803 [9]): Dde
- Activity (SGC-7901 [10]): Dde
- inhibition (MGC-803 [11]): Dde
- Activity (MGC-803 [12]): Dde
- Activity (MGC-803 [13]): 76.97%
- Activity (MGC-803 [14]): Active
- Activity (MGC-803 [15]): Active
- Activity (SGC-7901 [16]): Active
- Activity (SGC-7901 [17]): Active
- Activity (MGC-803 [18]): Active
- Activity (SGC-7901 [19]): Active
- Activity (MGC-803 [20]): Dde
- Activity (MGC-803 [21]): Dde
- Activity (SGC-7901 [22]): Active
- Activity (MGC-803 [23]): Active
- Activity (SGC-7901 [24]): Active
- Activity (SGC-7901 [25]): Active
- Activity (MGC-803 [26]): Active
- Activity (SGC-7901 [27]): Active
